Test results: the supplement of paper PMC11451515

System: NOMO1
Test: cell viability relative to DMSO control; higher = less cytotoxic
Details: 48 h
How it was run: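 Viability was expressed as a per-plate percentage of DMSO wells, with cell-free wells as background. Leukemia cells (NOMO1 or SEM at 500 cells/well, P12-Ichikawa at 1000 cells/well) were adapted for at least four passages in each medium and seeded in 1536-well plates (5 μl). Library compounds in DMSO were pin-dosed over an 11-point threefold series from 47 μM to 0.79 nM, and CellTiter-Glo One luminescence was read after 48 h at 37°C.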

[1] = HPLM + 10% dialyzed FBS, 0.000781 µM
[2] = HPLM + 10% dialyzed FBS, 0.00234 µM
[3] = HPLM + 10% dialyzed FBS, 0.00702 µM
[4] = HPLM + 10% dialyzed FBS, 0.0211 µM
[5] = HPLM + 10% dialyzed FBS, 0.0632 µM
[6] = HPLM + 10% dialyzed FBS, 0.19 µM
[7] = HPLM + 10% dialyzed FBS, 0.569 µM
[8] = HPLM + 10% dialyzed FBS, 1.71 µM
[9] = HPLM + 10% dialyzed FBS, 5.12 µM
[10] = HPLM + 10% dialyzed FBS, 15.4 µM
[11] = HPLM + 10% dialyzed FBS, 46.1 µM
[12] = RPMI 5 mM glucose + 10% FBS, 0.000781 µM
[13] = RPMI 5 mM glucose + 10% FBS, 0.00234 µM
[14] = RPMI 5 mM glucose + 10% FBS, 0.00702 µM
[15] = RPMI 5 mM glucose + 10% FBS, 0.0211 µM
[16] = RPMI 5 mM glucose + 10% FBS, 0.0632 µM
[17] = RPMI 5 mM glucose + 10% FBS, 0.19 µM
[18] = RPMI 5 mM glucose + 10% FBS, 0.569 µM
[19] = RPMI 5 mM glucose + 10% FBS, 1.71 µM
[20] = RPMI 5 mM glucose + 10% FBS, 5.12 µM
[21] = RPMI 5 mM glucose + 10% FBS, 15.4 µM
[22] = RPMI 5 mM glucose + 10% FBS, 46.1 µM
[23] = RPMI 5 mM glucose + 10% dialyzed FBS, 0.000781 µM
[24] = RPMI 5 mM glucose + 10% dialyzed FBS, 0.00234 µM
[25] = RPMI 5 mM glucose + 10% dialyzed FBS, 0.00702 µM
[26] = RPMI 5 mM glucose + 10% dialyzed FBS, 0.0211 µM
[27] = RPMI 5 mM glucose + 10% dialyzed FBS, 0.0632 µM
[28] = RPMI 5 mM glucose + 10% dialyzed FBS, 0.19 µM
[29] = RPMI 5 mM glucose + 10% dialyzed FBS, 0.569 µM
[30] = RPMI 5 mM glucose + 10% dialyzed FBS, 1.71 µM
[31] = RPMI 5 mM glucose + 10% dialyzed FBS, 5.12 µM
[32] = RPMI 5 mM glucose + 10% dialyzed FBS, 15.4 µM
[33] = RPMI 5 mM glucose + 10% dialyzed FBS, 46.1 µM

Compound `Nc1nnc(-c2cccc(Cl)c2Cl)c(N)n1` has a cell viability [1] of 95.9%, a cell viability [2] of 89.7% and a cell viability [3] of 97.6%. The cell viability [4] was 33%, the cell viability [5] was 107% and the cell viability [6] was 113%. It also gave a cell viability [7] of 112%, a cell viability [8] of 98.9% and a cell viability [9] of 121%. The cell viability [10] was 108%, the cell viability [11] was 115% and the cell viability [12] was 89.2%. It also gave a cell viability [13] of 86.6%, a cell viability [14] of 93.5% and a cell viability [15] of 23.7%. The cell viability [16] was 112%, the cell viability [17] was 96.5% and the cell viability [18] was 88.4%. The cell viability [19] was 96.1%, the cell viability [20] was 102% and the cell viability [21] was 95.2%. The cell viability [22] was 102%, the cell viability [23] was 76% and the cell viability [24] was 89.2%. The cell viability [25] was 94%, the cell viability [26] was 43.7% and the cell viability [27] was 96.2%. For the same compound, the cell viability [28] was 93.1%, the cell viability [29] was 99% and the cell viability [30] was 108%. It also gave a cell viability [31] of 103%, a cell viability [32] of 98.6% and a cell viability [33] of 99.1%.

`CC(C)c1ccc(Cn2ccc3c4c(N)nc(NC5CC5)nc4ccc32)cc1` showed a cell viability [1] of 116%, a cell viability [2] of 114% and a cell viability [3] of 116%. It also gave a cell viability [4] of 101%, a cell viability [5] of 126% and a cell viability [6] of 123%. It also gave a cell viability [7] of 70.2%, a cell viability [8] of 53.1% and a cell viability [9] of 38.8%. For the same compound, the cell viability [10] was 39.3%, the cell viability [11] was 4.39% and the cell viability [12] was 121%. For the same compound, the cell viability [13] was 116%, the cell viability [14] was 125% and the cell viability [15] was 120%. It also gave a cell viability [16] of 120%, a cell viability [17] of 130% and a cell viability [18] of 123%. For the same compound, the cell viability [19] was 113%, the cell viability [20] was 100% and the cell viability [21] was 30.9%. It also gave a cell viability [22] of 4.9%, a cell viability [23] of 110% and a cell viability [24] of 109%. It also gave a cell viability [25] of 104%, a cell viability [26] of 107% and a cell viability [27] of 133%. For the same compound, the cell viability [28] was 124%, the cell viability [29] was 128% and the cell viability [30] was 84.7%. The cell viability [31] was 50.3%, the cell viability [32] was 49.8% and the cell viability [33] was 3.66%.

`CN[C@@H](C)C(=O)N[C@H]1CN(C(=O)CC(C)C)CC[C@H]2CC[C@@H](C(=O)NC(c3ccccc3)c3ccccc3)N2C1=O` gave a cell viability [1] of 96.2%, a cell viability [2] of 118% and a cell viability [3] of 112%. It also gave a cell viability [4] of 119%, a cell viability [5] of 82.9% and a cell viability [6] of 85.2%. It also gave a cell viability [7] of 74%, a cell viability [8] of 54.5% and a cell viability [9] of 17.4%. For the same compound, the cell viability [10] was 13.9%, the cell viability [11] was 11.3% and the cell viability [12] was 102%. The cell viability [13] was 105%, the cell viability [14] was 104% and the cell viability [15] was 100%. It also gave a cell viability [16] of 96.9%, a cell viability [17] of 91.6% and a cell viability [18] of 95.8%. The cell viability [19] was 37%, the cell viability [20] was 10.6% and the cell viability [21] was 10.2%. The cell viability [22] was 6.19%, the cell viability [23] was 85.3% and the cell viability [24] was 98.6%. The cell viability [25] was 92.6%, the cell viability [26] was 94.1% and the cell viability [27] was 121%. For the same compound, the cell viability [28] was 91.8%, the cell viability [29] was 97.1% and the cell viability [30] was 90.3%. It also gave a cell viability [31] of 17.7%, a cell viability [32] of 13.9% and a cell viability [33] of 9.5%.

With `CC(/C=C/C(=O)NO)=C\[C@@H](C)C(=O)c1ccc(N(C)C)cc1` the cell viability [1] was 112%, the cell viability [2] was 104% and the cell viability [3] was 107%. The cell viability [4] was 104%, the cell viability [5] was 134% and the cell viability [6] was 122%. The cell viability [7] was 108%, the cell viability [8] was 57% and the cell viability [9] was 5.04%. For the same compound, the cell viability [10] was 4.16%, the cell viability [11] was 2.85% and the cell viability [12] was 89.8%. It also gave a cell viability [13] of 100%, a cell viability [14] of 109% and a cell viability [15] of 98.8%. For the same compound, the cell viability [16] was 93.9%, the cell viability [17] was 109% and the cell viability [18] was 89.2%. It also gave a cell viability [19] of 59.5%, a cell viability [20] of 5.72% and a cell viability [21] of 3.5%. The cell viability [22] was 2.44%, the cell viability [23] was 111% and the cell viability [24] was 120%. The cell viability [25] was 122%, the cell viability [26] was 114% and the cell viability [27] was 108%. For the same compound, the cell viability [28] was 115%, the cell viability [29] was 95.1% and the cell viability [30] was 65%. It also gave a cell viability [31] of 5.26%, a cell viability [32] of 5% and a cell viability [33] of 2.94%.

With `COc1ncnc(N[S+](=O)([O-])c2ccc(N)cc2)c1OC` the cell viability [1] was 111%, the cell viability [2] was 111% and the cell viability [3] was 104%. For the same compound, the cell viability [4] was 122%, the cell viability [5] was 102% and the cell viability [6] was 123%. For the same compound, the cell viability [7] was 97.6%, the cell viability [8] was 61.4% and the cell viability [9] was 31.5%. It also gave a cell viability [10] of 8.89%, a cell viability [11] of 7.76% and a cell viability [12] of 97.7%. It also gave a cell viability [13] of 107%, a cell viability [14] of 107% and a cell viability [15] of 98%. It also gave a cell viability [16] of 101%, a cell viability [17] of 112% and a cell viability [18] of 103%. It also gave a cell viability [19] of 106%, a cell viability [20] of 51.3% and a cell viability [21] of 24%. It also gave a cell viability [22] of 13.5%, a cell viability [23] of 103% and a cell viability [24] of 115%. For the same compound, the cell viability [25] was 97.2%, the cell viability [26] was 110% and the cell viability [27] was 117%. The cell viability [28] was 119%, the cell viability [29] was 123% and the cell viability [30] was 108%. It also gave a cell viability [31] of 70.9%, a cell viability [32] of 36.7% and a cell viability [33] of 19%.

`Cn1c(=O)n(-c2ccc(C(C)(C)C#N)cc2)c2c3cc(-c4cnc5ccccc5c4)ccc3ncc21` showed a cell viability [1] of 99.4%, a cell viability [2] of 99.2% and a cell viability [3] of 105%. It also gave a cell viability [4] of 97.5%, a cell viability [5] of 91.2% and a cell viability [6] of 89.2%. For the same compound, the cell viability [7] was 61.1%, the cell viability [8] was 37.4% and the cell viability [9] was 41.9%. The cell viability [10] was 33.9%, the cell viability [11] was 32.2% and the cell viability [12] was 103%. The cell viability [13] was 114%, the cell viability [14] was 104% and the cell viability [15] was 102%. The cell viability [16] was 106%, the cell viability [17] was 99.9% and the cell viability [18] was 89.8%. The cell viability [19] was 52.4%, the cell viability [20] was 28.7% and the cell viability [21] was 19.8%. The cell viability [22] was 27.1%, the cell viability [23] was 102% and the cell viability [24] was 120%. The cell viability [25] was 111%, the cell viability [26] was 112% and the cell viability [27] was 94.9%. It also gave a cell viability [28] of 73.4%, a cell viability [29] of 66.4% and a cell viability [30] of 49.3%. For the same compound, the cell viability [31] was 33.7%, the cell viability [32] was 22.6% and the cell viability [33] was 30.5%.

`Cn1cc(/C=C2\C(=O)Nc3cccnc32)c2ccccc21` showed a cell viability [1] of 118%, a cell viability [2] of 138% and a cell viability [3] of 122%. The cell viability [4] was 138%, the cell viability [5] was 157% and the cell viability [6] was 138%. For the same compound, the cell viability [7] was 138%, the cell viability [8] was 146% and the cell viability [9] was 126%. The cell viability [10] was 123%, the cell viability [11] was 98.8% and the cell viability [12] was 113%. It also gave a cell viability [13] of 119%, a cell viability [14] of 130% and a cell viability [15] of 129%. The cell viability [16] was 143%, the cell viability [17] was 123% and the cell viability [18] was 124%. The cell viability [19] was 142%, the cell viability [20] was 125% and the cell viability [21] was 77.1%. It also gave a cell viability [22] of 89.3%, a cell viability [23] of 117% and a cell viability [24] of 118%. For the same compound, the cell viability [25] was 117%, the cell viability [26] was 132% and the cell viability [27] was 130%. It also gave a cell viability [28] of 140%, a cell viability [29] of 141% and a cell viability [30] of 147%. It also gave a cell viability [31] of 128%, a cell viability [32] of 78.2% and a cell viability [33] of 84.3%.

Compound `Nc1cc(C(F)(F)F)c(-c2cc(N3CCOCC3)nc(N3CCOCC3)n2)cn1` has a cell viability [12] of 115%, a cell viability [13] of 127% and a cell viability [14] of 118%. For the same compound, the cell viability [15] was 133%, the cell viability [16] was 130% and the cell viability [17] was 120%. The cell viability [18] was 98.4%, the cell viability [19] was 74.5% and the cell viability [20] was 14.8%. For the same compound, the cell viability [21] was 6.77% and the cell viability [22] was 7.91%.
